In ChEMBL document CHEMBL1201862, “PubChem BioAssay data set” (2004):
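1) Cells in 96-well plates. 2) Compound, 48 h, 5 concentrations. 3) Linear interpolation between surrounding doses. 4) Unreached endpoint = highest concentration. GI50 marks 50% less growth.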 The source made the active and inactive calls. No stated cut-off is given here; in the data, active = GI50 up to about 1.1 µM and inactive = higher.

Key:
Experiment in all cases: growth of human tumour cells (NCI), 48 h
UACC-257 = system: UACC-257
KM-20L2 = system: KM-20L2
COLO 205 = system: COLO 205
HOP-18 = system: HOP-18
HOP-62 = system: HOP-62
OVCAR-8 = system: OVCAR-8
ACHN = system: ACHN
NCI-H522 = system: NCI-H522
K562 = system: K562
HCT-116 = system: HCT-116
NCI-H460 = system: NCI-H460
RXF 393 = system: RXF 393
DMS-273 = system: DMS-273
SW-620 = system: SW-620
HT-29 = system: HT-29
OVCAR-3 = system: OVCAR-3
CCRF-CEM = system: CCRF-CEM
UO-31 = system: UO-31
LXFL 529 = system: LXFL 529
UACC-62 = system: UACC-62
DLD-1 = system: DLD-1
KM12 = system: KM12
DMS-114 = system: DMS-114
HCT-15 = system: HCT-15
NCI-H23 = system: NCI-H23
SF-268 = system: SF-268
Malme-3M = system: Malme-3M
M19-MEL = system: M19-MEL
A549 = system: A549
OVCAR-4 = system: OVCAR-4
SNB-78 = system: SNB-78
786-0 = system: 786-0
NCI-H226 = system: NCI-H226
MOLT-4 = system: MOLT-4
LOX IMVI = system: LOX IMVI
SK-MEL-28 = system: SK-MEL-28
U-251 = system: U-251
SK-MEL-2 = system: SK-MEL-2
HCC 2998 = system: HCC 2998
HL-60 = system: HL-60
SNB-75 = system: SNB-75
IGROV-1 = system: IGROV-1
SF-539 = system: SF-539
HOP-92 = system: HOP-92
SN12C = system: SN12C
SNB-19 = system: SNB-19
SF-295 = system: SF-295
M14 = system: M14
EKVX = system: EKVX
TK-10 = system: TK-10
RPMI-8226 = system: RPMI-8226
SK-OV-3 = system: SK-OV-3
SR = system: SR

With CC(C)=CCC/C(C)=C/CC/C(C)=C/Cc1c(O)c2ccccc2oc1=O the GI50 (UACC-257) was 99.8 µM (inactive), the GI50 (KM-20L2) was > 100 µM (inactive) and the GI50 (COLO 205) was > 100 µM (inactive). The GI50 (HOP-18) was > 100 µM (inactive), the GI50 (HOP-62) was > 100 µM (inactive) and the GI50 (OVCAR-8) was > 100 µM (inactive). The GI50 (ACHN) was > 100 µM (inactive), the GI50 (NCI-H522) was > 100 µM (inactive) and the GI50 (K562) was 80.5 µM (inactive). The GI50 (HCT-116) was 89.1 µM (inactive), the GI50 (NCI-H460) was > 100 µM (inactive) and the GI50 (RXF 393) was 99.1 µM (inactive). The GI50 (DMS-273) was > 100 µM (inactive), the GI50 (SW-620) was > 100 µM (inactive) and the GI50 (HT-29) was > 100 µM (inactive). For the same molecule, the GI50 (OVCAR-3) was 75.5 µM (inactive), the GI50 (CCRF-CEM) was > 100 µM (inactive) and the GI50 (UO-31) was 48.8 µM (inactive). For the same molecule, the GI50 (LXFL 529) was > 100 µM (inactive), the GI50 (UACC-62) was 63.7 µM (inactive) and the GI50 (DLD-1) was > 100 µM (inactive). The GI50 (KM12) was > 100 µM (inactive), the GI50 (DMS-114) was 83.6 µM (inactive) and the GI50 (HCT-15) was 69 µM. The GI50 (NCI-H23) was 55.8 µM (inactive), the GI50 (SF-268) was > 100 µM (inactive) and the GI50 (Malme-3M) was > 100 µM (inactive). For the same molecule, the GI50 (M19-MEL) was > 100 µM (inactive), the GI50 (A549) was 65.6 µM (inactive) and the GI50 (OVCAR-4) was > 100 µM (inactive). For the same molecule, the GI50 (SNB-78) was > 100 µM (inactive), the GI50 (786-0) was > 100 µM (inactive) and the GI50 (NCI-H226) was 47.1 µM (inactive). For the same molecule, the GI50 (MOLT-4) was > 100 µM (inactive), the GI50 (LOX IMVI) was > 100 µM (inactive) and the GI50 (SK-MEL-28) was > 100 µM (inactive). The GI50 (U-251) was 57.9 µM (inactive), the GI50 (SK-MEL-2) was > 100 µM (inactive) and the GI50 (HCC 2998) was > 100 µM (inactive). The GI50 (HL-60) was 99.1 µM (inactive), the GI50 (SNB-75) was > 100 µM (inactive) and the GI50 (IGROV-1) was > 100 µM (inactive). For the same molecule, the GI50 (SF-539) was > 100 µM (inactive), the GI50 (HOP-92) was > 100 µM (inactive) and the GI50 (SN12C) was > 100 µM (inactive). The GI50 (SNB-19) was > 100 µM (inactive), the GI50 (SF-295) was > 100 µM (inactive) and the GI50 (M14) was > 100 µM (inactive). The GI50 (EKVX) was > 100 µM (inactive), the GI50 (TK-10) was > 100 µM (inactive) and the GI50 (RPMI-8226) was 91.6 µM (inactive). For the same molecule, the GI50 (SK-OV-3) was > 100 µM (inactive) and the GI50 (SR) was > 100 µM (inactive).
